This test deals with TAAR1 (Mus musculus, UniProt Q923Y8). The experiment in a line: Radioligand binding to TAAR1 on membranes of stably transfected HEK293 cells.

The values below come from US20080096906A1, “AMINOMETHYL-2-IMIDAZOLES” (priority 2006, published 2008).

As usually defined, the Kd is a measure of binding affinity in units of concentration. The term Ki denotes a measure of affinity in units of concentration, obtained from inhibition or displacement. Higher therefore signals a looser hold on the target.

TAAR1, sequence (Q923Y8 whole entry): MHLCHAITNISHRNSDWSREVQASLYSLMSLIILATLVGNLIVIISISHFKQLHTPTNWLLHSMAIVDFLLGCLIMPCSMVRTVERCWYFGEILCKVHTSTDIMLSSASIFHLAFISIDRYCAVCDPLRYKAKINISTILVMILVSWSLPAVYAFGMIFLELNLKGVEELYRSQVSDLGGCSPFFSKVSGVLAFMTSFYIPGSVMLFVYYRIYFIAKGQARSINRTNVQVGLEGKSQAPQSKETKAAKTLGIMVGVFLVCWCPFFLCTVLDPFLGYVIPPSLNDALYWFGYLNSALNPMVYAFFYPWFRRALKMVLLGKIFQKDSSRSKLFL
Protocol: The ability of the compounds of the present invention to bind to TAAR1 was investigated in accordance with the test given hereinafter.
The Expand High Fidelity PCR System (Roche Diagnostics) was used with 1.5 mM Mg^2+ and purified PCR products were cloned into pCR2.1-TOPO cloning vector (Invitrogen) following the instructions of the manufacturer. PCR products were subcloned into the pIRESneo2 vector (BD Clontech, Palo Alto, Calif.), and expression vectors were sequence verified before introduction in cell lines.
For the generation of stably transfected cell lines HEK293 cells were transfected with the pIRESneo2 expression plasmids containing the TAAR coding sequences (described above) with Lipofectamine 2000 (Invitrogen) according to the instructions of the manufacturer, and 24 hours post transfection the culture medium was supplemented with 1 mg/ml G418 (Sigma, Buchs, Switzerland). After a culture period of about 10 days, clones were isolated, expanded and tested for responsiveness to trace amines (all compounds purchased from Sigma) with the cAMP Biotrak Enzyme immunoassay (EIA) System (Amersham) following the non-acetylation EIA procedure provided by the manufacturer.
Cells at confluence were rinsed with ice-cold phosphate buffered saline without Ca^2+ and Mg^2+ containing 10 mM EDTA and pelleted by centrifugation at 1000 rpm for 5 min at 4° C. The pellet was then washed twice with ice-cold phosphate buffered saline and cell pellet was frozen immediately by immersion in liquid nitrogen and stored until use at −80° C. The cell pellet was then suspended in 20 ml HEPES-NaOH (20 mM), pH 7.4 containing 10 mM EDTA, and homogenized with a Polytron (PT 3000, Kinematica) at 10,000 rpm for 10 seconds. The homogenate was centrifuged at 48,000×g for 30 minutes at 4° C. and the pellet resuspended in 20 ml HEPES-NaOH (20 mM), pH 7.4 containing 0.1 mM EDTA (buffer A), and homogenized with a Polytron at 10,000 rpm for 10 seconds. The homogenate was then centrifuged at 48,000×g for 30 minutes at 4° C. and the pellet resuspended in 20 ml buffer A, and homogenized with a Polytron at 10,000 rpm for 10 seconds. Protein concentration was determined by the method of Pierce (Rockford, Ill.). The homogenate was then centrifuged at 48,000×g for 10 minutes at 4° C., resuspended in HEPES-NaOH (20 mM), pH 7.0 including MgCl2 (10 mM) and CaCl2 (2 ml) (buffer B) at 200 μg protein per ml and homogenized with a Polytron at 10,000 rpm for 10 seconds.
Binding assay was performed at 4° C. in a final volume of 1 ml, and with an incubation time of 30 minutes. […] Non-specific binding was defined as the amount of [^3H]-rac-2-(1,2,3,4-tetrahydro-1-naphthyl)-2-imidazoline bound in the presence of the appropriate unlabelled ligand (10 μM). Competing ligands were tested in a wide range of concentrations (10 pM-30 μM). […] Each experiment was performed in duplicate. All incubations were terminated by rapid filtration through UniFilter-96 plates (Packard Instrument Company) and glass filter GF/C, pre-soaked for at least 2 h in polyethylenimine 0.3%, and using a Filtermate 96 Cell Harvester (Packard Instrument Company). The tubes and filters were then washed 3 times with 1 ml aliquots of cold buffer B. Filters were not dried and soaked in Ultima gold (45 μl/well, Packard Instrument Company) and bound radioactivity was counted by a TopCount Microplate Scintillation Counter (Packard Instrument Company).

On to `c1ccc2c(c1)CCCC2C1=NCCN1` (racemic) [[^3H]-rac-2-(1,2,3,4-tetrahydro-1-naphthyl)-2-imidazoline, reference compound], for which, for the setting “read-out: calculated Kd value of the radioligand, radioligand used at a concentration equal to its Kd, species not stated”, the Kd was 60 nM.
Turning to `CN(Cc1ncc[nH]1)c1cccc(Cl)c1` [Example 2, (3-Chloro-phenyl)-(1H-imidazol-2-ylmethyl)-methyl-amine], the affinity corresponds to a Ki of 30 nM.
For `CN(Cc1ncc[nH]1)c1ccc(Cl)cc1` [Example 5, (4-Chloro-phenyl)-(1H-imidazol-2-ylmethyl)-methyl-amine], the Ki is 81 nM.
With `COc1cccc(N(C)Cc2ncc[nH]2)c1` [Example 6, (1H-Imidazol-2-ylmethyl)-(3-methoxy-phenyl)-methyl-amine], the Ki was 73 nM.
Consider `CC(C)N(Cc1ncc[nH]1)c1ccc(F)cc1` [Example 10, (4-Fluoro-phenyl)-(1H-imidazol-2-ylmethyl)-isopropyl-amine], for which affinity was put at a Ki of 94 nM.
Molecule `CCN(Cc1ncc[nH]1)c1cccc(F)c1` [Example 12, Ethyl-(3-fluoro-phenyl)-(1H-imidazol-2-ylmethyl)-amine] came in with a Ki of 51 nM.
Same read-out and setting: then `COCCN(Cc1ncc[nH]1)c1ccccc1` [Example 21, (1H-Imidazol-2-ylmethyl)-(2-methoxy-ethyl)-phenyl-amine], with 82 nM; and `CCN(Cc1ncc[nH]1)c1cccc(Cl)c1` [Example 30, (3-Chloro-phenyl)-ethyl-(1H-imidazol-2-ylmethyl)-amine], with 36 nM.
The molecule `CC(C)N(Cc1ncc[nH]1)c1cc(Cl)cc(Cl)c1` [Example 37] gave a Ki of 65 nM.
`Cc1cccc(N(Cc2ncc[nH]2)C(C)C)c1` [Example 39, (1H-Imidazol-2-ylmethyl)-isopropyl-m-tolyl-amine] came in with a Ki of 89 nM.
The molecule `CC(C)N(Cc1ncc[nH]1)c1cccc(OCc2ccccc2)c1` [Example 41, (3-Benzyloxy-phenyl)-(1H-imidazol-2-ylmethyl)-isopropyl-amine] displayed a Ki of 21 nM.
As to `CC(C)N(Cc1ncc[nH]1)c1cccc(Oc2cccnc2)c1` [Example 43, (1H-Imidazol-2-ylmethyl)-isopropyl-[3-(pyridin-3-yloxy)-phenyl]-amine], affinity was put at a Ki of 25 nM.
Turning to `CC(C)N(Cc1ncc[nH]1)c1cccc(Cc2ccccc2)c1` [Example 45, (3-Benzyl-phenyl)-(1H-imidazol-2-ylmethyl)-isopropyl-amine], the Ki was 2 nM.
With `CC(C)N(Cc1ncc[nH]1)c1cccc(-c2ccccc2)c1` [Example 46, Biphenyl-3-yl-(1H-imidazol-2-ylmethyl)-isopropyl-amine], the inhibition constant (Ki) turned out to be 77 nM.
`CC(C)N(Cc1ncc[nH]1)c1cccc(Oc2ccc(Cl)cc2)c1` [Example 51, [3-(4-Chloro-phenoxy)-phenyl]-(1H-imidazol-2-ylmethyl)-isopropyl-amine]: the affinity corresponds to a Ki of 82 nM.
The same measure, in the same setting: then `c1ccc(Oc2cccc(NCc3ncc[nH]3)c2)cc1` [Example 61, (1H-Imidazol-2-ylmethyl)-(3-phenoxy-phenyl)-amine], with 26.1 nM; and `c1ccc(COc2cccc(NCc3ncc[nH]3)c2)cc1` [Example 62, (3-Benzyloxy-phenyl)-(1H-imidazol-2-ylmethyl)-amine], with 2.8 nM.
Turning to `COc1cc(NCc2ncc[nH]2)ccc1Cl` [Example 64, (4-Chloro-3-methoxy-phenyl)-(1H-imidazol-2-ylmethyl)-amine], affinity was put at a Ki of 25.9 nM.
Still for that read-out and setting: the result for `CCN(Cc1ncc[nH]1)c1cccc(Oc2ccccc2)c1` [Example 65, Ethyl-(1H-imidazol-2-ylmethyl)-(3-phenoxy-phenyl)-amine] reads 11.1 nM.
The molecule `CCN(Cc1ncc[nH]1)c1cccc(OCc2ccccc2)c1` [Example 66, (3-Benzyloxy-phenyl)-ethyl-(1H-imidazol-2-ylmethyl)-amine] came in with a Ki of 26.3 nM.
`CCN(Cc1ncc[nH]1)c1ccc(Cl)c(Cl)c1` [Example 68, (3,4-Dichloro-phenyl)-ethyl-(1H-imidazol-2-ylmethyl)-amine] registered a Ki of 33.1 nM.
Regarding `Brc1cccc(NCc2ncc[nH]2)c1` [Example 71, (3-Bromo-phenyl)-(1H-imidazol-2-ylmethyl)-amine], the affinity corresponds to a Ki of 99.5 nM.
Molecule `Fc1ccc(NCc2ncc[nH]2)cc1F` [Example 73, (3,4-Difluoro-phenyl)-(1H-imidazol-2-ylmethyl)-amine] displayed a Ki of 70.8 nM.
Turning to `Fc1ccc(NCc2ncc[nH]2)cc1Cl` [Example 74, (3-Chloro-4-fluoro-phenyl)-(1H-imidazol-2-ylmethyl)-amine], the inhibition constant Ki came out at 83.9 nM.
In the case of `Clc1ccc(NCc2ncc[nH]2)cc1Cl` [Example K8, (3,4-dichloro-phenyl)-(1H-imidazol-2-ylmethyl)-amine, reference compound], affinity was put at a Ki of 55 nM.
